Drawing on PMC9095416 (Medicinal Chemistry Research, 2022), this text covers IC50 for one compound.

pIC50: −log10 of the molar value.

Usually pIC50 stands for the negative decadic logarithm of the IC50, by convention in mol/L.

Assay [1] has as its target T1, SARS-CoV-2 M^pro (Severe acute respiratory syndrome coronavirus 2, UniProt P0DTD1). The assay can be described thus: FRET-based enzymatic assay, SARS-CoV-2 M^pro. The format is biochemical. The conditions noted are these: FRET assay M^pro IC50, 4 mM DTT.
Assay [2] deals with SARS-CoV-2 PL^pro (Severe acute respiratory syndrome coronavirus 2, UniProt P0DTD1). In words: FRET-based enzymatic assay, SARS-CoV-2 PL^pro. The format is biochemical.
The target of assay [3] is T1, SARS-CoV-2 M^pro. In words: cell-based.

For the compound `Oc1cc(O)cc(Oc2c(O)cc(O)c3c2Oc2c(O)cc(Oc4c(O)cc(Oc5c(O)cc(O)c6c5Oc5c(O)cc(O)cc5O6)cc4O)cc2O3)c1` [Dieckol, dieckol], the pIC50 in assay [1] was below 4.70; in assay [2] it was below 4.70; in assay [3], below 4.22.
